In paper PMC9784828, “Antimicrobial Activity of Peptide-Coupled Antisense Peptide Nucleic Acids in Streptococcus pneumoniae” (Microbiology Spectrum, 2022):

Assays:
[1] = tested on: S. pneumoniae TIGR4; assay: In vitro time-killing assay (killing kinetics); format: cell-based, Streptococcus pneumoniae; conditions: 10 μM, n = 3
Protocol: The antimicrobial activity kinetics of TAT- and (RXR)4XB-conjugated anti-gyrA PNA constructs in S. pneumoniae TIGR4 were studied using an in vitro time-killing assay. Bacteria were treated with 10 μM CPP-antisense PNAs or scrambled control PNAs (Fig. 2). Samples were collected every 2 h following antisense treatment. CFU/mL was determined by plating of serial dilutions and plotted over time. […] In contrast, (RXR)4XB-conjugated anti-gyrA PNA treatment led to a continuous reduction in S. pneumoniae CFU until complete eradication after 12 h.
For monitoring of killing kinetics, samples were collected 2 to 12 h post-treatment. Viable cell counts were determined by plating appropriate dilutions on BHI agar plates. CFU were determined by visual inspection following overnight incubation at 37°C under a 5% CO2 atmosphere. At time point 0, the viable cell count corresponded to 1 × 10^5 to 3 × 10^5 CFU/mL.

[2] = tested on: gyrA mRNA; assay: RT-qPCR, relative expression of gyrA; format: cell-based, Streptococcus pneumoniae; conditions: TIGR4; 7.5 μM CPP-anti-gyrA PNA; 6 h; normalised to 5S rRNA; 2^–ΔΔCT; n = 3
Protocol: We investigated the influence of treatment with CPP-conjugated antisense PNAs on the amount of target gene mRNA in S. pneumoniae using reverse transcription-quantitative PCR (RT-qPCR) (Fig. 3). S. pneumoniae strain TIGR4 was treated with a sublethal dose (log CFU reduction of <2) of CPP-PNA conjugates. Transcript abundance of the 5S rRNA gene was used for normalization ([27]). Target gene mRNA levels in mock-treated bacteria served as controls. Treatment with 7.5 μM CPP-anti-gyrA PNAs and 10 μM CPP-anti-rpoB PNAs led to significant reductions in the respective target gene transcripts compared to the untreated control sample (Fig. 3).
For RNA isolation, 450 μL bacterial suspension (10^5 CFU/mL in BHI) was prepared for each experimental condition, treated with CPP-PNA conjugates as indicated, and incubated in a 2-mL reaction tube for 6 h at 37°C and 7 rpm (Rotor SB3; Stuart, Staffordshire, United Kingdom). Subsequently, five samples per condition were pooled. […]
cDNA synthesis was performed using the Superscript First-Strand Synthesis system for RT-qPCR (Invitrogen, Thermo Fisher Scientific, Darmstadt, Germany). Quantitative PCR amplification was conducted with SYBR Green (Thermo Fisher Scientific) using the LightCycler 480 real-time PCR system (Roche Diagnostics GmbH, Mannheim, Germany). […] Relative expression was calculated using the 2^–ΔΔ^CT method ([27]). […]

RXRRXRRXRRXRXB-eg-tgcattaata [(RXR)4XB-anti-gyrA PNA, (RXR)4XB peptide coupled to antisense PNA against gyrA]
Time to complete eradication of S. pneumoniae CFU [1]: 12 h | gyrA mRNA level relative to mock-treated control [2]: 45%
